For one test, the target named is Plasma kallikrein (Homo sapiens, UniProt P03952). Put plainly: (§1) Determination of the IC50 for Plasma Kallikrein: Plasma kallikrein inhibitory activity in vitro was determined using standard published methods (see e.g. Johansen et al., Int. J. Tiss. Reac. 1986, 8, 185; Shori et al., Biochem. Pharmacol., 1992, 43, 1209; Sturzebecher et al., Biol. Chem. Hoppe-Seyler, 1992, 373, 1025). Human plasma kallikrein (Protogen) was incubated at 25° C. with the fluorogenic substrate H-DPro-Phe-Arg-AFC and various concentrations of the test compound. Residual enzyme activity (initial rate of reaction) was determined by measuring the change in optical absorbance at 410 nm and the IC50 value for the test compound was determined.

For another test, the target named is Kallikrein-1 (Homo sapiens, UniProt P06870). The description is as §1, with “KLK1: KLK1” for “Plasma Kallikrein: Plasma kallikrein”, “KLK1 (Callbiochem)” for “plasma kallikrein (Protogen)”, “H-DVal-Leu-Arg-AFC” for “H-DPro-Phe-Arg-AFC”.
Another test addresses Coagulation factor XI (Homo sapiens, UniProt P03951). Put plainly: Determination of the % Inhibition for FXIa: FXIa inhibitory activity in vitro was determined using standard published methods (see e.g. Johansen et al., Int. J. Tiss. Reac. 1986, 8, 185; Shori et al., Biochem. Pharmacol., 1992, 43, 1209; Sturzebecher et al., Biol. Chem. Hoppe-Seyler, 1992, 373, 1025). Human FXIa (Enzyme Research Laboratories) was incubated at 25° C. with the fluorogenic substrate Z-Gly-Pro-Arg-AFC and 40 μM of the test compound (or alternatively at various concentrations of the test compound in order to determine IC50). Residual enzyme activity (initial rate of reaction) was determined by measuring the change in optical absorbance at 410 nm and the IC50 value for the test compound was determined.

Chain of Plasma kallikrein (P03952 20-390 limits assumed): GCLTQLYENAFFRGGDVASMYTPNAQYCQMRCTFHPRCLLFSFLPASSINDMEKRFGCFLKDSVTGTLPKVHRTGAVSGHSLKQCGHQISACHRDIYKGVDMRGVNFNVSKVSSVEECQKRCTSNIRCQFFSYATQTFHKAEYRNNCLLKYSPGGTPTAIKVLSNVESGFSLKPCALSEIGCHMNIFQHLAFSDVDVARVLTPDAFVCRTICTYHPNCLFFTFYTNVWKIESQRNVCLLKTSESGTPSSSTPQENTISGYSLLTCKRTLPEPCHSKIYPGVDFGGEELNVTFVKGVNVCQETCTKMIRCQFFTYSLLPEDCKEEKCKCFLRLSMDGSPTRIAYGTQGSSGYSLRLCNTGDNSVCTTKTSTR
Chain of Plasma kallikrein (P03952 391-638 limits assumed): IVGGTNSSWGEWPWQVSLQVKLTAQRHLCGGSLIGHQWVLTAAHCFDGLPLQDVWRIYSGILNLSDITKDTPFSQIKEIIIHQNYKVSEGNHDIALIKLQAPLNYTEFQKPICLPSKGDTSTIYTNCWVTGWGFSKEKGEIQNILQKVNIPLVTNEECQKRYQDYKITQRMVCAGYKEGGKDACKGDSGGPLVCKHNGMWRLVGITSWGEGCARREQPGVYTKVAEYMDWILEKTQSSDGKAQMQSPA
Chain of Coagulation factor XI (P03951 19-387 limits assumed): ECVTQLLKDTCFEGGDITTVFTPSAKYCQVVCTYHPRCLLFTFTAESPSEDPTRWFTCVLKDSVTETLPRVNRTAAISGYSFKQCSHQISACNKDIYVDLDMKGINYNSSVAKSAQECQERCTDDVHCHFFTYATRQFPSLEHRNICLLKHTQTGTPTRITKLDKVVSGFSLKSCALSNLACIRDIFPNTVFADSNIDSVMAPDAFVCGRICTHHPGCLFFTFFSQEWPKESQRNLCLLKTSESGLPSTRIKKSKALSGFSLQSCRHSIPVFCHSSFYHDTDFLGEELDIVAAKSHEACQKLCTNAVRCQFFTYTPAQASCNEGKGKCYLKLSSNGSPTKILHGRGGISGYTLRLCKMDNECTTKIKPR
Chain of Coagulation factor XI (P03951 388-625 limits assumed): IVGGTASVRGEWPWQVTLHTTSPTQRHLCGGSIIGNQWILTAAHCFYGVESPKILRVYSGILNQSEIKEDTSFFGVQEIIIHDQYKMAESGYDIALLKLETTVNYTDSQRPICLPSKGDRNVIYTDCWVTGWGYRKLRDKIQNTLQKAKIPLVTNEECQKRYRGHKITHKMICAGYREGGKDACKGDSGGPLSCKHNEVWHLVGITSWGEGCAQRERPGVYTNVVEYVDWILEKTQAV
Chain of Kallikrein-1 (P06870 whole entry): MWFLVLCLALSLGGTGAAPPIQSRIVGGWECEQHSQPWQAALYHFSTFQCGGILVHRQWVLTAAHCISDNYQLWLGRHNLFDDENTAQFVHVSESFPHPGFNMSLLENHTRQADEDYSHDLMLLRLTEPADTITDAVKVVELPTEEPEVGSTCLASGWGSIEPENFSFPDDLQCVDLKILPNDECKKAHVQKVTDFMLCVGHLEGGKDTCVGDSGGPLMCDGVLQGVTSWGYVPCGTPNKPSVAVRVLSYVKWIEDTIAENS

By IC50 is commonly meant the concentration at which inhibition is half-maximal. A lower IC50 goes with greater potency. Take `COCc1nn(Cc2ccc3c(c2)CN(C(C)C)C3)cc1C(=O)NCc1c(-n2cc(C)nn2)ccc(OC)c1F`: the IC50 on Plasma kallikrein was less than 0.01 µM; on Kallikrein-1 it was more than 40 µM; against Coagulation factor XI it was more than 40 µM.
On to `COCc1nn(Cc2cnc(N3CCCC3)nc2)cc1C(=O)NCc1c(-n2ccnn2)ccc(OC)c1F`, for which the IC50 was less than 0.01 µM against Plasma kallikrein, more than 40 µM on Kallikrein-1 and 0.97 µM against Coagulation factor XI.
The corresponding values for `COCc1nn(Cc2cnc(N3CCCC3)nc2)cc1C(=O)NCc1c(-n2cc(C)nn2)ccc(OC)c1F` are less than 0.01 µM, more than 40 µM and 1.84 µM.

The values above are taken from ChEMBL document CHEMBL5729649, “Enzyme inhibitors” (2023).
